tested on: HL60 cells; test: Anti-cancer activity test, MTT, HL60 cells; type: cell-based; conditions: Homo sapiens, HL-60, culturing for 72 hours
Procedure: Cell culture medium: Roswell medium RPMI-1640 (+L-glutamine) was added with 10% fetal bovine serum, with 100 units penicillin and 100 μg streptomycin per ml.
Cell culture conditions: 5% CO2, 95% humidity, cultured at 37° C. constant temperature.
2. Cell Inoculation, Drugs Dosing and Culture.
Logarithmic growth phase HL-60, human chronic myeloid leukemia cells (K562), human esophageal squamous cell carcinoma cells (KYSE510), human large cell lung cancer cells (H460) were inoculated into 96-well cell culture plates, 2×10^4 cells per well. Different concentrations of active compounds (dissolved in dimethyl sulfoxide (DMSO) stock solution) were added, so that the final concentration of DMSO was 0.2%, and the control group was DMSO. Each group was repeated three times.
After culturing for 72 hours, 20 µL of thiazolyl blue (MTT) (5 mg/ml, ready for use, dissolved in 1×PBS for cell culture) was added to each well, and incubated at 37° C. for 3 hours.
The 96-well cell culture plates were centrifuged at 1000 rpm for 10 minutes. The supernatant was discarded; 200 μL of DMSO was added to each well and the plate was shaken for 5 minutes.
The absorbance of each well was detected at 570 nm wavelength with a microplate reader, and the IC50 of the compounds was calculated.

SMILES	IC50
CC(C)C[C@H](NC(=O)[C@H](Cc1c[nH]c2ccccc12)NS(=O)(=O)Cc1ccccc1)B1O[C@@H]2C[C@@H]3C[C@@H](C3(C)C)[C@]2(C)O1 [Compound A32]	< 100 nM
CC(C)C[C@H](NC(=O)[C@H](Cc1c[nH]c2ccccc12)NC(=O)c1ccc2cc(N)ccc2c1)B(O)O [Compound A88]	< 100 nM
CC(C)C[C@H](NC(=O)[C@H](Cc1c[nH]c2ccccc12)NC(=O)OCc1ccccc1)B1O[C@@H]2C[C@@H]3C[C@@H](C3(C)C)[C@]2(C)O1 [Compound A21]	< 100 nM
CC(C)C[C@H](NC(=O)[C@H](Cc1c[nH]c2ccccc12)NS(=O)(=O)Cc1ccccc1)B(O)O [Compound A71]	< 100 nM
CC(C)C[C@H](NC(=O)[C@H](CC(C)C)NC(=O)Cn1c2cc(Cl)ccc2c2ccc(Cl)cc21)B(O)O [Compound A100]	500 to 2000 nM
CC(C)C[C@H](NC(=O)[C@H](C)NC(=O)c1cccc2c1C(=O)N(C1CCC(=O)NC1=O)C2=O)B1O[C@@H]2C[C@@H]3C[C@@H](C3(C)C)[C@]2(C)O1 (some centres unmarked) [Compound A54]	2000 to 10000 nM
CC(C)C[C@H](NC(=O)[C@H](CC(C)C)NC(=O)NCC1c2ccccc2-c2ccccc21)B1O[C@@H]2C[C@@H]3C[C@@H](C3(C)C)[C@]2(C)O1 [Compound A43]	< 100 nM
CC(C)C[C@H](NC(=O)[C@H](CC(C)C)NC(=O)NC1c2ccccc2-c2ccccc21)B1O[C@@H]2C[C@@H]3C[C@@H](C3(C)C)[C@]2(C)O1 [Compound A42]	< 100 nM
CC(C)C[C@H](NC(=O)[C@H](Cc1cn(C(=O)OC(C)(C)C)c2ccccc12)NC(=O)C1CC2C=CC1C2)B1O[C@@H]2C[C@@H]3C[C@@H](C3(C)C)[C@]2(C)O1 (some centres unmarked) [Compound A27]	< 100 nM
CC(C)C[C@H](NC(=O)[C@H](Cc1c[nH]c2ccccc12)NC(=O)c1nc2ccccc2s1)B(O)O [Compound A73]	< 100 nM
CC(C)C[C@H](NC(=O)[C@H](Cc1c[nH]c2ccccc12)NC(=O)OC1CCCC1)B1O[C@@H]2C[C@@H]3C[C@@H](C3(C)C)[C@]2(C)O1 [Compound A45]	< 100 nM
CC(C)C[C@H](NC(=O)[C@H](Cc1c[nH]c2ccccc12)NC(=O)CC12CC3CC(CC(C3)C1)C2)B1O[C@@H]2C[C@@H]3C[C@@H](C3(C)C)[C@]2(C)O1 [Compound A25]	< 100 nM
CC(C)C[C@H](NC(=O)[C@H](CC(=O)NC(c1ccccc1)(c1ccccc1)c1ccccc1)NC(=O)OC(C)(C)C)B1O[C@@H]2C[C@@H]3C[C@@H](C3(C)C)[C@]2(C)O1 [Compound A19]	100 to 500 nM
COC(=O)C[C@H](NC(=O)OCC1c2ccccc2-c2ccccc21)C(=O)N[C@@H](CC(C)C)B1O[C@@H]2C[C@@H]3C[C@@H](C3(C)C)[C@]2(C)O1 [Compound A16]	< 100 nM
CC(C)C[C@H](NC(=O)[C@H](Cc1c[nH]c2ccccc12)NC(=O)c1ccc2ncccc2c1)B(O)O [Compound A74]	< 100 nM
CC(C)C[C@H](NC(=O)[C@H](CC(C)C)NC(=O)Cn1c2ccccc2c2ncccc21)B(O)O [Compound A104]	100 to 500 nM
CC(C)C[C@H](NC(=O)[C@H](CC(C)C)NC(=O)Cn1c2ccccc2c2ccc(O)cc21)B(O)O [Compound A106]	100 to 500 nM
C[C@H](NC(=O)[C@H](CCCCNC(=O)OC(C)(C)C)NC(=O)OCC1c2ccccc2-c2ccccc21)B1O[C@@H]2C[C@@H]3C[C@@H](C3(C)C)[C@]2(C)O1 [Compound A23]	100 to 500 nM
CC(C)C[C@H](NC(=O)[C@H](Cc1c[nH]c2ccccc12)NC(=O)OCC1c2ccccc2-c2ccccc21)B1O[C@@H]2C[C@@H]3C[C@@H](C3(C)C)[C@]2(C)O1 [Compound A18]	< 100 nM
CC(C)C[C@H](NC(=O)[C@H](CC(C)C)N(C)C(=O)OCC1c2ccccc2-c2ccccc21)B1O[C@@H]2C[C@@H]3C[C@@H](C3(C)C)[C@]2(C)O1 [Compound A50]	2000 to 10000 nM
CC(C)C[C@H](NC(=O)[C@H](Cc1c[nH]c2ccccc12)NC(=O)c1ccc2ccccc2c1)B(O)O [Compound A76]	< 100 nM
CC(C)C[C@H](NC(=O)[C@H](Cc1cn(C(=O)OC(C)(C)C)c2ccccc12)NC(=O)OCC1c2ccccc2-c2ccccc21)B1O[C@@H]2C[C@@H]3C[C@@H](C3(C)C)[C@]2(C)O1 [Compound A8]	< 100 nM
CC(C)C[C@H](NC(=O)[C@H](Cc1ccccc1)NC(=O)OCC1c2ccccc2-c2ccccc21)B1O[C@@H]2C[C@@H]3C[C@@H](C3(C)C)[C@]2(C)O1 [Compound A15]	< 100 nM
CC(C)C[C@H](NC(=O)[C@H](CC(C)C)NC(=O)Cn1c2ccccc2c2ccc(C#N)cc21)B1O[C@@H]2C[C@@H]3C[C@@H](C3(C)C)[C@]2(C)O1 [Compound A61]	100 to 500 nM
CC(C)C[C@H](NC(=O)[C@H](Cc1c[nH]c2ccccc12)NC(=O)NC1CCCC1)B(O)O [Compound A77]	< 100 nM
CC(C)C[C@H](NC(=O)[C@H](Cc1c[nH]c2ccccc12)NC(=O)c1ccc2ccccc2c1)B1O[C@@H]2C[C@@H]3C[C@@H](C3(C)C)[C@]2(C)O1 [Compound A37]	< 100 nM
CC(C)C[C@H](NC(=O)[C@H](CC(C)C)NC(=O)Cn1c2ccccc2c2cccnc21)B(O)O [Compound A94]	500 to 2000 nM

Second part, the molecule after the results:

IC50	SMILES
< 100 nM	CC(C)C[C@H](NC(=O)[C@H](Cc1c[nH]c2ccccc12)NC(=O)OC1CCCC1)B(O)O [Compound A78]
100 to 500 nM	CC(C)C[C@H](NC(=O)[C@H](Cc1c[nH]c2ccccc12)NC(=O)CC12CC3CC(CC(C3)C1)C2)B(O)O [Compound A68]
500 to 2000 nM	CC(C)C[C@H](NC(=O)[C@H](Cc1cn(C(=O)OC(C)(C)C)c2ccccc12)NC(=O)C12CC3CC(C1)C(=O)C(C3)C2)B1O[C@@H]2C[C@@H]3C[C@@H](C3(C)C)[C@]2(C)O1 [Compound A28]
< 100 nM	CC(C)C[C@H](NC(=O)CNC(=O)OCC1c2ccccc2-c2ccccc21)B(O)O [Compound A84]
< 100 nM	CC(C)C[C@H](NC(=O)[C@H](Cc1c[nH]c2ccccc12)NC(=O)CC1CCCCC1)B1O[C@@H]2C[C@@H]3C[C@@H](C3(C)C)[C@]2(C)O1 [Compound A29]
100 to 500 nM	CC(C)C[C@H](NC(=O)[C@H](Cc1c[nH]c2ccccc12)NC(=O)c1nc2ccccc2s1)B1O[C@@H]2C[C@@H]3C[C@@H](C3(C)C)[C@]2(C)O1 [Compound A34]
500 to 2000 nM	CC(C)C[C@H](NC(=O)[C@H](Cc1c[nH]c2ccccc12)NC(=O)c1ccncc1)B1O[C@@H]2C[C@@H]3C[C@@H](C3(C)C)[C@]2(C)O1 [Compound A33]
2000 to 10000 nM	CC(C)C[C@H](NC(=O)[C@H](C)NC(=O)c1cccc2c1C(=O)N(C1CCC(=O)NC1=O)C2=O)B(O)O (some centres unmarked) [Compound A91]
2000 to 10000 nM	CC(C)C[C@H](NC(=O)[C@H](CC(C)C)N(C)C(=O)OCC1c2ccccc2-c2ccccc21)B(O)O [Compound A83]
< 100 nM	COc1ccc2cc(C(=O)N[C@@H](Cc3c[nH]c4ccccc34)C(=O)N[C@@H](CC(C)C)B(O)O)ccc2c1 [Compound A87]
100 to 500 nM	CC(C)C[C@H](NC(=O)[C@@H](NC(=O)OCC1c2ccccc2-c2ccccc21)[C@@H](C)O)B1O[C@@H]2C[C@@H]3C[C@@H](C3(C)C)[C@]2(C)O1 [Compound A11]
500 to 2000 nM	CC(C)C[C@H](NC(=O)[C@H](CC(C)C)NC(=O)Cn1c2ccccc2c2cc(F)ccc21)B1O[C@@H]2C[C@@H]3C[C@@H](C3(C)C)[C@]2(C)O1 [Compound A60]
< 100 nM	CC(C)C[C@H](NC(=O)[C@H](Cc1c[nH]c2ccccc12)NC(=O)CC1CCCC1)B1O[C@@H]2C[C@@H]3C[C@@H](C3(C)C)[C@]2(C)O1 [Compound A30]
< 100 nM	CC(C)C[C@H](NC(=O)[C@H](CC(C)C)NC(=O)OCC1c2ccccc2-c2ccccc21)B(O)O [Compound A65]
100 to 500 nM	CC(C)C[C@H](NC(=O)[C@H](CC(C)C)NC(=O)Cn1c2ccccc2c2ncccc21)B1O[C@@H]2C[C@@H]3C[C@@H](C3(C)C)[C@]2(C)O1 [Compound A63]
100 to 500 nM	CC(C)C[C@H](NC(=O)[C@H](CC(C)C)NC(=O)Cn1c2ccccc2c2ccncc21)B(O)O [Compound A92]
500 to 2000 nM	CC(C)C[C@H](NC(=O)[C@H](CC(C)C)NC(=O)CN(c1ccccc1)c1ccccc1)B(O)O [Compound A93]
500 to 2000 nM	CC(C)C[C@H](NC(=O)[C@H](CC(C)C)NC(=O)CN(c1ccccc1)c1ccccc1)B1O[C@@H]2C[C@@H]3C[C@@H](C3(C)C)[C@]2(C)O1 [Compound A55]
500 to 2000 nM	CC(C)C[C@H](NC(=O)[C@H](CC(C)C)NC(=O)Cn1c2ccccc2c2cccnc21)B1O[C@@H]2C[C@@H]3C[C@@H](C3(C)C)[C@]2(C)O1 [Compound A56]
< 100 nM	CC(C)C[C@H](NC(=O)[C@H](Cc1c[nH]c2ccccc12)NC(=O)c1cnc2ccccc2c1)B1O[C@@H]2C[C@@H]3C[C@@H](C3(C)C)[C@]2(C)O1 [Compound A36]
< 100 nM	COC(=O)CC[C@H](NC(=O)OCC1c2ccccc2-c2ccccc21)C(=O)N[C@@H](CC(C)C)B1O[C@@H]2C[C@@H]3C[C@@H](C3(C)C)[C@]2(C)O1 [Compound A14]
2000 to 10000 nM	CC(C)C[C@H](NC(=O)OCC1c2ccccc2-c2ccccc21)C(=O)N1CCC[C@H]1B1O[C@@H]2C[C@@H]3C[C@@H](C3(C)C)[C@]2(C)O1 [Compound A49]
500 to 2000 nM	COc1ccc2c3ccccc3n(CC(=O)N[C@@H](CC(C)C)C(=O)N[C@@H](CC(C)C)B(O)O)c2c1 [Compound A95]

Reference: patent publication US12570673B2, “c-Myc protein inhibitor, and preparation method therefor and use thereof” (SUZHOU KINTOR PHARMACEUTICALS, INC., priority 2019, dated 2026)
